For data set [1] the following is noted: phase solubility analysis; cited from earlier work.
A short description of data set [2]: physchem. It counts as physicochemical. Conditions: identical conditions (deionized water, room temperature, 24 hours); read-out: equilibrium solubility of diclofenac sodium in the absence of beta cyclodextrin. The protocol: The vial is sealed and placed in a laboratory shaker. The mixture is allowed to shake for 5 minutes and then equilibrated for 24 hours. The supernatant is filtered through a 0,22 micron filter and analyzed for diclofenac concentration by HPLC.

Molecules are shown by their SMILES.

For the compound `O=C(O)Cc1ccccc1Nc1c(Cl)cccc1Cl` [diclofenac, 2-[(2,6-dichlorophenyl)amino]benzeneacetic acid], the “effect of beta-cyclodextrin and hydroxyalkyl ether derivatives on aqueous solubility of diclofenac” value in data set [1] is recorded as “increase the aqueous solubility”.
In the case of `O=C(O)Cc1ccccc1Nc1c(Cl)cccc1Cl` [diclofenac sodium], the solubility thermodynamic at 24 h in data set [2] came out at 5000 µg/mL.
